Records with an inconclusive call do not appear. Activity calls are given as the source filed them.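 How the source made its calls: active means signal loss with an EC50 at or below twice the highest valid dose for that sample; inconclusive means flat curve with 30 to 70% inhibition, or poor fit; inactive means the rest.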
System: P. falciparum Dd2 in erythrocytes, SYBR Green growth, 72 h
Assay: Dd2 parasite growth inhibition in erythrocytes – SYBR Green, dry powder samples, set 9, dose response (AID 1159568)

Question: O=C(C[C@H]1C[C@H]2c3cc(NC(=O)c4ccc5c(c4)OCO5)ccc3O[C@H]2[C@H](CO)O1)NCc1ccc(Oc2ccccc2)cc1 was tested. Which EC50 did it give?
Answer: The EC50 was > 39 µM (inactive).

Reference: PubChem BioAssay AID1159568 (Broad Institute, 2015)
